Laboratory results: patent US10344060B2 (priority 2013, dated 2019)
Read-outs that look alike come from different tables or passages of the source.

Columns and labels:
Assay in all cases: cell-based
hNav1.5 = hNav1.5 (Homo sapiens, UniProt Q14524); settings: for Nav1.5/Nav1.7: ratio of PX tonic IC50 values; for IC50: read-out: PX hNav1.5 Tonic IC50
hNav1.4 [1] = biological target: T1, hNav1.4 (Homo sapiens, UniProt P35499); format: cell-based; settings: for Nav1.4/Nav1.7: ratio of PX tonic IC50 values; for IC50: read-out: PX hNav1.4 Tonic IC50
hNav1.7 = hNav1.7 (Homo sapiens, UniProt Q15858); format: cell-based; settings: read-out: PX hNav1.7 Tonic IC50
hNav1.4 [2] = biological target: T1, hNav1.4; format: cell-based; settings: ratio of IonWorks Quattro IC50 values; Table 9
[3] = Table 12, PatchXpress, tonic block

Chain of hNav1.5 (Q14524 whole entry): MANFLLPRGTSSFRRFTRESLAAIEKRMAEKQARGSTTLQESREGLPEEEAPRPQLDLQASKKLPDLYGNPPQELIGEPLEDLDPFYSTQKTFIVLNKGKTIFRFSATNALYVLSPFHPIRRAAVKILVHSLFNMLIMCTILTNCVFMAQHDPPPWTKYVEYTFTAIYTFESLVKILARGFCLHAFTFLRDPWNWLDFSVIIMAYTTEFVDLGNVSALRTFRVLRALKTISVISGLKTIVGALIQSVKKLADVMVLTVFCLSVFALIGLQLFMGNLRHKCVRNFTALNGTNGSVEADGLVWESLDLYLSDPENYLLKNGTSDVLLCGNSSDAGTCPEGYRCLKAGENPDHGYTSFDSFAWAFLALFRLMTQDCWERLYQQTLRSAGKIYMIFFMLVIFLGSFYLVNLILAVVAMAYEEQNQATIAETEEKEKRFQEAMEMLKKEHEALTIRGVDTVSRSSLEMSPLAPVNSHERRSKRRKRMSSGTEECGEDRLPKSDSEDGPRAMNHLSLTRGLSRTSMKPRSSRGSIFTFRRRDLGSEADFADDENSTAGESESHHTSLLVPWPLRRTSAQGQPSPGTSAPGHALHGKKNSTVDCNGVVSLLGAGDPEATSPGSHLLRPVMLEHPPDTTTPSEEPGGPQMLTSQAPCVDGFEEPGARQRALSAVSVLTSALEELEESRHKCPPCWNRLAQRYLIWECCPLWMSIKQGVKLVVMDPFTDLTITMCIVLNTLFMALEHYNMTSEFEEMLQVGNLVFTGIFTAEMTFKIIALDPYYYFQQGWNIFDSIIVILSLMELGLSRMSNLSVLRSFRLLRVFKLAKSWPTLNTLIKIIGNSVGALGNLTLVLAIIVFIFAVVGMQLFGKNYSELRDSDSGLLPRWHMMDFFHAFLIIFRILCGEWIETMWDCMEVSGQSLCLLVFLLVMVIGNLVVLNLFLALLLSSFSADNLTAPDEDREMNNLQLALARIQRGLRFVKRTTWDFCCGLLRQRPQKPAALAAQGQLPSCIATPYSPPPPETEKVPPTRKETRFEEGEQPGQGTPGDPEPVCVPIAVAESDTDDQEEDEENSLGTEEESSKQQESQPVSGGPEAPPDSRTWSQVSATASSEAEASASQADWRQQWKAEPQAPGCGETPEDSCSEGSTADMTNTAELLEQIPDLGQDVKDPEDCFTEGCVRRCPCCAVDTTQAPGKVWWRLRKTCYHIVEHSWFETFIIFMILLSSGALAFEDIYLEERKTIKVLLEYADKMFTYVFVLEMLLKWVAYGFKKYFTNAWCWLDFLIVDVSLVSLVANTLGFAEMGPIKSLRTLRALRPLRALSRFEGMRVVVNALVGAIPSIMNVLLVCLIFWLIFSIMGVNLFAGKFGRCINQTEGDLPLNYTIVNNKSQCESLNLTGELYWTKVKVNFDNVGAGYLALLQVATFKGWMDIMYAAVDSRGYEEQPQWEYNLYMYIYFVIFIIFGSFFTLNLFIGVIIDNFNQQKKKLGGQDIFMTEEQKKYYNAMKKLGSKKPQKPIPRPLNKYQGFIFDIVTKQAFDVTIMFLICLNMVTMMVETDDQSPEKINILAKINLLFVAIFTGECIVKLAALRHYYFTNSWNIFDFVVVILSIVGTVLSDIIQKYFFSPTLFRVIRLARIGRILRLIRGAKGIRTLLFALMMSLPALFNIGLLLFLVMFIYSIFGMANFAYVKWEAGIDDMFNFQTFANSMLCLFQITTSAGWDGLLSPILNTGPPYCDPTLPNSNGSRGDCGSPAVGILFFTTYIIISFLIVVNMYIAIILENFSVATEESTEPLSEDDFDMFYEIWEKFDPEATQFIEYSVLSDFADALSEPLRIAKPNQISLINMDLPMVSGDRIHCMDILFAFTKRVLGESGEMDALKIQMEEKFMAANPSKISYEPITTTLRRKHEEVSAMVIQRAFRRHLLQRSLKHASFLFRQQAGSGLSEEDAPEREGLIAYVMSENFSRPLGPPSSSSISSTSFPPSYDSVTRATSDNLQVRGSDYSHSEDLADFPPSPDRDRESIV
Chain of hNav1.7 (Q15858 whole entry): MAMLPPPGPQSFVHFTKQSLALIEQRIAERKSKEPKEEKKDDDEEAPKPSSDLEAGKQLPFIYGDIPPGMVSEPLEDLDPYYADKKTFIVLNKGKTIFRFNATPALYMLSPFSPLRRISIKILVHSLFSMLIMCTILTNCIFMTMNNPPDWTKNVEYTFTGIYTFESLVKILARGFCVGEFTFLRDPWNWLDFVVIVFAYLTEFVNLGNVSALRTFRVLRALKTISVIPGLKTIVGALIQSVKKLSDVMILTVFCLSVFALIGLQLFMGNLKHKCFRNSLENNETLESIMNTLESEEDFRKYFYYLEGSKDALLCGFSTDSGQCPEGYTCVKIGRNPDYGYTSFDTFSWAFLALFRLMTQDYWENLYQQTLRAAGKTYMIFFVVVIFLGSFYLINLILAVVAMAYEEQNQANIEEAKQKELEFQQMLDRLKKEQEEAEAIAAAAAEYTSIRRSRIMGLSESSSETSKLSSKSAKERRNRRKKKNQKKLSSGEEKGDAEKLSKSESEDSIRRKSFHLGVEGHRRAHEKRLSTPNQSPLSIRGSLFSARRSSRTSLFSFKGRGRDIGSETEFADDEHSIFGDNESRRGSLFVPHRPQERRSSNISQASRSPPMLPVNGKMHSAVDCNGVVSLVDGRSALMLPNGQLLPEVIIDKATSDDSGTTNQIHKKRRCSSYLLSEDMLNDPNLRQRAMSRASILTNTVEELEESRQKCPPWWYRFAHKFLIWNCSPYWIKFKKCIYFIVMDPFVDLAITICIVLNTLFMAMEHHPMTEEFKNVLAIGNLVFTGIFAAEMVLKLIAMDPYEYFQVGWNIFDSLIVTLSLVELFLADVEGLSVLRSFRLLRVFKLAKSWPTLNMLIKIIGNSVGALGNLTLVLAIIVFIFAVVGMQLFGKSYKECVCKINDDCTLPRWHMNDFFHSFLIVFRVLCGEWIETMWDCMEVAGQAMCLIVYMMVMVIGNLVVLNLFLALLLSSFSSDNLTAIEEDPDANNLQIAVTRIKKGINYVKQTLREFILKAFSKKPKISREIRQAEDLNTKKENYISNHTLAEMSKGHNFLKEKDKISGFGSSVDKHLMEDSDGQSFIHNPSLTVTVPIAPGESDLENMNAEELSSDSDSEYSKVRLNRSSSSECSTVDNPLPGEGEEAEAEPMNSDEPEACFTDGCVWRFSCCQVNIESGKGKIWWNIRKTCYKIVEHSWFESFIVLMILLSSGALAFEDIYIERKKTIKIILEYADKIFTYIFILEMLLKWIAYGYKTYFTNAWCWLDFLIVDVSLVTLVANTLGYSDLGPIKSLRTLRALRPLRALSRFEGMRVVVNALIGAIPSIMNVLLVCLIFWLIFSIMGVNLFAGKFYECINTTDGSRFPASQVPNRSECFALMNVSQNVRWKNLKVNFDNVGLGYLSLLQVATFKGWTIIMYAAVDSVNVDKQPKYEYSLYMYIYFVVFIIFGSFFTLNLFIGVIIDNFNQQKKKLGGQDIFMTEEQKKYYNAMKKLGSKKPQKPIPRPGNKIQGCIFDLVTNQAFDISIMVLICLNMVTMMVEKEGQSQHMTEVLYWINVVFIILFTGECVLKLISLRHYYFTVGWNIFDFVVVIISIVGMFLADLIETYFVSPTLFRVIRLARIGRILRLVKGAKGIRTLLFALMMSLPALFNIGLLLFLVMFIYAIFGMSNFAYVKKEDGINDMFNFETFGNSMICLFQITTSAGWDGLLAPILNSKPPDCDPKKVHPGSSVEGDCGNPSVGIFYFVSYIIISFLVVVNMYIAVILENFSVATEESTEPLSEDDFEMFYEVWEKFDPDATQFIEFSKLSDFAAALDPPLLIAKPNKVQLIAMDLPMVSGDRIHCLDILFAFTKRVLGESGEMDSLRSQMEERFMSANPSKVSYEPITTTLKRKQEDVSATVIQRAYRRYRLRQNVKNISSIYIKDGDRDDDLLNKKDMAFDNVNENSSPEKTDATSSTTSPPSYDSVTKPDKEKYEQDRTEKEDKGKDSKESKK

Row | SMILES | Nav1.5/Nav1.7 (hNav1.5; Table 12) | Nav1.4/Nav1.7 (hNav1.4 [1]; Table 12) | IC50 (hNav1.7; [3]) | Nav1.5/Nav1.7 (hNav1.5; Table 13) | IC50 (hNav1.5) | Nav1.4/Nav1.7 (hNav1.4 [1]; Table 13) | IC50 (hNav1.4 [1]) | IC50 (hNav1.7) | Nav1.4/Nav1.7 (hNav1.4 [2]) | IC50 (hNav1.5; [3]) | IC50 (hNav1.4 [1]; [3])
1 | C#CC[C@H](N)C(=O)NCCOCCOCCOCCOCCC(=O)NCCCC[C@@H]1NC(=O)[C@H](CCCNC(=N)N)NC(=O)[C@H](CCCCN)NC(=O)[C@H](CO)NC(=O)[C@H](CC(=O)O)NC(=O)[C@@H]2CSSC[C@@H]3NC(=O)[C@H](CCCNC(=N)N)NC(=O)[C@H](CC(C)C)NC(=O)CNC(=O)[C@H](CCC(=O)O)NC(=O)[C@H](CSSC[C@H](NC(=O)[C@H](Cc4ccc(O)cc4)NC(=O)[C@@H](N)CC#N)C(=O)N[C@@H](CCC(N)=O)C(=O)N[C@@H](CCCCN)C(=O)N[C@@H](Cc4c[nH]c5ccccc45)C(=O)N[C@@H](CCCC)C(=O)N[C@@H](Cc4c[nH]c5ccccc45)C(=O)N[C@@H]([C@@H](C)O)C(=O)N2)NC(=O)[C@H](CSSC[C@@H](C(=O)N[C@@H](CCCNC(=N)N)C(=O)N[C@@H](CCCCN)C(=O)N[C@H](C(=O)N[C@H](C(N)=O)[C@@H](C)CC)[C@@H](C)CC)NC(=O)[C@H](Cc2c[nH]c4ccccc24)NC(=O)[C@H](CC(C)C)NC(=O)[C@H](CCCCN)NC3=O)NC1=O [compound 380] | 0 | 0 | 0.845 nM |  |  |  |  |  |  |  | 
2 | CCCC[C@@H]1NC(=O)[C@H](Cc2c[nH]c3ccccc23)NC(=O)[C@H](CCCCN)NC(=O)[C@H](CCC(N)=O)NC(=O)[C@@H](NC(=O)[C@H](Cc2ccc(O)cc2)NC(=O)[C@@H](N)Cc2cn(CCCCCCNC(=O)CCOCCOCCOCCOCCNC(=O)CCCC[C@@H]3SC[C@@H]4NC(=O)N[C@@H]43)nn2)CSSC[C@@H]2NC(=O)[C@@H]3CSSC[C@@H](C(=O)N[C@@H](CCCNC(=N)N)C(=O)N[C@@H](CCCCN)C(=O)N[C@H](C(=O)N[C@H](C(N)=O)[C@@H](C)CC)[C@@H](C)CC)NC(=O)[C@H](Cc4c[nH]c5ccccc45)NC(=O)[C@H](CC(C)C)NC(=O)[C@H](CCCCN)NC(=O)[C@H](CSSC[C@H](NC(=O)[C@H]([C@@H](C)O)NC(=O)[C@H](Cc4c[nH]c5ccccc45)NC1=O)C(=O)N[C@@H](CC(=O)O)C(=O)N[C@@H](CO)C(=O)N[C@@H](CCCCN)C(=O)N[C@@H](CCCNC(=N)N)C(=O)N[C@@H](C)C(=O)N3)NC(=O)[C@H](CCCNC(=N)N)NC(=O)[C@H](CC(C)C)NC(=O)CNC(=O)[C@H](CCC(=O)O)NC2=O [compound 898] |  |  |  | 2067 | 5130 nM | 6 | 15.5 nM | 2.48 nM |  |  | 
3 | CCC[C@H](N)C(=O)N[C@@H](Cc1ccc(O)cc1)C(=O)N[C@H]1CSSC[C@@H]2NC(=O)[C@@H]3CSSC[C@@H](C(=O)N[C@@H](CCCNC(=N)N)C(=O)N[C@@H](CCCCN)C(=O)N[C@H](C(=O)N[C@H](C(N)=O)[C@@H](C)CC)[C@@H](C)CC)NC(=O)[C@H](Cc4c[nH]c5ccccc45)NC(=O)[C@H](CC(C)C)NC(=O)[C@H](CCCCN)NC(=O)[C@H](CSSC[C@H](NC(=O)[C@H]([C@@H](C)O)NC(=O)[C@H](Cc4c[nH]c5ccccc45)NC(=O)[C@H](CC(C)C)NC(=O)[C@H](Cc4c[nH]c5ccccc45)NC(=O)[C@H](CCCCN)NC(=O)[C@H](CCC(N)=O)NC1=O)C(=O)N[C@@H](CC(=O)O)C(=O)N[C@@H](CO)C(=O)N[C@@H](CCCCN)C(=O)N[C@@H](CCCNC(=N)N)C(=O)N[C@@H](CCCCNC(=O)[C@@H](N)Cc1cn(CCOCCOCCOCCOCCOCCOCCOCCOCCOCCOCCN)nn1)C(=O)N3)NC(=O)[C@H](CCCNC(=N)N)NC(=O)[C@H](CC(C)C)NC(=O)CNC(=O)[C@H](CCC(=O)O)NC2=O [compound 446] |  |  |  | 207 | 2410 nM | 11 | 128 nM | 11.6 nM |  |  | 
4 | C#CC[C@@H]1NC(=O)[C@H](CCCNC(=N)N)NC(=O)[C@H](CCCCN)NC(=O)[C@H](CO)NC(=O)[C@H](CC(=O)O)NC(=O)[C@@H]2CSSC[C@@H]3NC(=O)[C@H](CCCNC(=N)N)NC(=O)[C@H](CC(C)C)NC(=O)CNC(=O)[C@H](CCC(=O)O)NC(=O)[C@H](CSSC[C@H](NC(=O)[C@@H](N)Cc4ccc(O)cc4)C(=O)N[C@@H](CCC(N)=O)C(=O)N[C@@H](CCCCN)C(=O)N[C@@H](Cc4c[nH]c5ccccc45)C(=O)N[C@@H](CCCC)C(=O)N[C@@H](Cc4c[nH]c5ccccc45)C(=O)N[C@@H]([C@@H](C)O)C(=O)N2)NC(=O)[C@H](CSSC[C@@H](C(=O)N[C@@H](CCCNC(=N)N)C(=O)N[C@@H](CCCCN)C(=O)N[C@H](C(=O)N[C@H](C(N)=O)[C@@H](C)CC)[C@@H](C)CC)NC(=O)[C@H](Cc2c[nH]c4ccccc24)NC(=O)[C@H](CC(C)C)NC(=O)[C@H](CCCCN)NC3=O)NC1=O [compound 283] | 2090 | 17 |  |  |  |  |  |  | 1 |  | 
5 | C#CC[C@H](N)C(=O)N[C@@H](Cc1ccc(O)cc1)C(=O)N[C@H]1CSSC[C@@H]2NC(=O)[C@@H]3CSSC[C@@H](C(=O)N[C@@H](CCCNC(=N)N)C(=O)N[C@@H](CCCCN)C(=O)N[C@@H](CCC(N)=O)C(=O)N[C@H](C(N)=O)[C@@H](C)CC)NC(=O)[C@H](Cc4c[nH]c5ccccc45)NC(=O)[C@H](CC(C)C)NC(=O)[C@H](CCCCN)NC(=O)[C@H](CSSC[C@H](NC(=O)[C@H]([C@@H](C)O)NC(=O)[C@H](Cc4c[nH]c5ccccc45)NC(=O)[C@H](CCCC)NC(=O)[C@H](Cc4c[nH]c5ccccc45)NC(=O)[C@H](CCCCN)NC(=O)[C@H](CCC(N)=O)NC1=O)C(=O)N[C@@H](CC(=O)O)C(=O)N[C@@H](CO)C(=O)N[C@@H](CCCCN)C(=O)N[C@@H](CCCNC(=N)N)C(=O)N[C@@H](C)C(=O)N3)NC(=O)[C@H](CCCNC(=N)N)NC(=O)[C@H](CC(C)C)NC(=O)CNC(=O)[C@H](CCC(=O)O)NC2=O [compound 665] | 3529 | 12 | 0.912 nM |  |  |  |  |  |  | 3220 nM | 10.7 nM
6 | C#CC[C@H](N)C(=O)N[C@@H](Cc1ccc(O)cc1)C(=O)N[C@H]1CSSC[C@@H]2NC(=O)[C@@H]3CSSC[C@@H](C(=O)N[C@@H](CCCNC(=N)N)C(=O)N[C@@H](CCCCN)C(=O)N[C@H](C(=O)N[C@@H](Cc4c[nH]c5ccccc45)C(N)=O)[C@@H](C)CC)NC(=O)[C@H](Cc4c[nH]c5ccccc45)NC(=O)[C@H](CC(C)C)NC(=O)[C@H](CCCCN)NC(=O)[C@H](CSSC[C@H](NC(=O)[C@H]([C@@H](C)O)NC(=O)[C@H](Cc4c[nH]c5ccccc45)NC(=O)[C@H](CCCC)NC(=O)[C@H](Cc4c[nH]c5ccccc45)NC(=O)[C@H](CCCCN)NC(=O)[C@H](CCC(N)=O)NC1=O)C(=O)N[C@@H](CC(=O)O)C(=O)N[C@@H](CO)C(=O)N[C@@H](CCCCN)C(=O)N[C@@H](CCCNC(=N)N)C(=O)N[C@@H](C)C(=O)N3)NC(=O)[C@H](CCCNC(=N)N)NC(=O)[C@H](CC(C)C)NC(=O)CNC(=O)[C@H](CCC(=O)O)NC2=O [compound 296] | 479 | 8 | 4.79 nM |  |  |  |  |  |  | 2290 nM | 37 nM
